Data as given in PMC6286365 (Scientific Reports, 2018).
Read-outs that look alike come from different tables or passages of the source. Values belong to the compound of their own block, whether it stands above or below them.

Experiments:
nSMase2 [1] = test system: nSMase2; parameters: method as in PMID 28377412; details: co-injection with IL-1β; cited from earlier work
human nSMase2 = molecular target: T1, human nSMase2 (Homo sapiens, UniProt Q9NY59); assay: biochemical
T1 sequence (Q9NY59 1-655): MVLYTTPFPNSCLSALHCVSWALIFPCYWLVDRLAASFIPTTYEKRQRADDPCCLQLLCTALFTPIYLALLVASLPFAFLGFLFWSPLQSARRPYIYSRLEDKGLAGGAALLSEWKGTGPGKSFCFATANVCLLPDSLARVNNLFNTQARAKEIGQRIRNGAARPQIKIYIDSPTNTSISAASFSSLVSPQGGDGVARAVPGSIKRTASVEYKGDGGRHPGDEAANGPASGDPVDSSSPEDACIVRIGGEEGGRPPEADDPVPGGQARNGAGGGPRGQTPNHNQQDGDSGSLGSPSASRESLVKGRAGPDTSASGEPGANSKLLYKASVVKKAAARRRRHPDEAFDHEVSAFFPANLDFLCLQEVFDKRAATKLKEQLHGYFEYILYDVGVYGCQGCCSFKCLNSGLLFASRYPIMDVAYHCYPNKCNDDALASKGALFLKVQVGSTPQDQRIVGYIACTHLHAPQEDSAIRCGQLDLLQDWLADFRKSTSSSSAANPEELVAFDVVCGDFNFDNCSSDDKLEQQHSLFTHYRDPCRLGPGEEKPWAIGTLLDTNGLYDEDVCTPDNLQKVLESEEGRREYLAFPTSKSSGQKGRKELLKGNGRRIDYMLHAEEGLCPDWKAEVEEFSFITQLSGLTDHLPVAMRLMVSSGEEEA

nSMase2 [2] = details: cited from earlier work
[3] = cited from earlier work
[4] = cited from earlier work; remark: listed apart in the source
primary astrocytes = assay: Inhibition of EV release from primary astrocytes (FBS withdrawal, nanoparticle tracking); format: cell-based, rat; details: 2 h treatment, dose range of concentrations
Description: (§1) Independent laboratories have shown that pharmacological and genetic inhibition of nSMase2 blocks EV secretion from glial cells. […] Two hours after treatment, EVs were isolated from the media and quantified by nanoparticle tracking analysis. […] Cells were fixed and immunofluorescence labeling for GFAP was performed.
(§2) Media was collected after 2 h incubation and centrifuged at 2700 × g for 15 min at 4 °C. Supernatant was collected and the number of extracellular vesicles (EVs) was quantified using ZetaView Nanoparticle Tracker. The mean concentration of EVs/mL (±SEM) was calculated from 4 replicate experiments. […] Astrocytes grown in complete medium were used as no treatment control. Cells were fixed and stained with anti-GFAP antibody (1:500, Sigma). Fluorescence intensity was measured using Image J. (C) Quantitation of fluorescence in (B). Bar graph represents background corrected mean fluorescence intensity measured from 100 astrocytes per condition. Error bars represent standard error of mean. One-way ANOVA followed by Tukey’s posthoc test was performed.
Potential inhibition of test compounds on EV release from primary astrocytes was carried out as previously described (Dickens et al., 2017). Briefly, rat primary astrocytes were seeded onto 6-well plates at a density of 20,000 cells/well. Twenty-four hours after seeding, astrocytes were washed with PBS and the medium changed to media without FBS. Absence of FBS mimics a trophic factor withdrawal stimulus causing EVs to be released from astrocytes via an nSMase2-dependent pathway. […] The supernatant was collected and the number of EVs quantified using ZetaView Nanoparticle Tracker (Particle Metrix GmBH, Meerbusch, Germany) and the corresponding ZetaVeiw software (8.03.04.01). Nanosphere size standard 100 nm (Thermo Scientific) was used to calibrate the instrument prior to sample readings. […] For each sample 1 mL of the supernatant was injected into the sample-carrier cell and the particle count measured at 5 positions, with 2 cycles of reading per position. […] Mean concentration of EVs/mL (±SEM) was calculated from 4 replicates.

Rat primary astrocytes = assay: Astrocyte activation, GFAP immunofluorescence (+/-) serum deprivation; format: cell-based; details: 10 μM, 2 h
Description: as §1, §2

GFAP-GFP mice = assay: Striatal IL-1β brain inflammation model: GFP-labeled astrocyte-derived EVs in plasma; format: in vivo, mouse; details: 10 mg/kg IP 0.5 h before IL-1β, 2 h post IL-1β
Description: As we have previously shown[11],[18], striatal injection of IL-1β in mice expressing GFP-GFAP in astroglia triggers a release of GFP-labelled EVs that rapidly enter into plasma, resulting in cytokine upregulation in liver and peripheral immune cell migration into brain[11]. […] There were two groups of mice: the first group was sacrificed 2 h after IL-1β administration by heart puncture, and GFP-labeled circulating EVs were measured with liver cytokines. […] Counting of astrocyte-released EV (GFP+) from blood and liver cytokine analysis was conducted by single injection of DPTIP. Although release of EVs from astrocytes can be initiated immediately after intracranial injection of IL-1β, infiltration of neutrophils in brain parenchyma occurred 12h-24h after the IL-1β injection. […] Western analysis using the isolated exosomal fraction confirmed the presence of CD63 (transmembrane protein), TSG101 (cytosolic protein) and Flotilin-1 (lipid raft associated protein), commonly used EV markers[19],[20]. The GFP signal was an indication that these EVs originated in brain[11] while lack of mitofilin and α-actinin signals indicated the vesicles were not of mitochondrial[21] or cytoskeletal[22] origin respectively (Fig. 6B).
Compounds were given 0.5 h before IL-1β dosing. One group of mice was sacrificed 2 h after IL-1β administration to determine effects of the various treatments on extracellular vesicles (EVs) releases from brain and liver cytokine analysis. […] (C) Liver cytokine levels under different treatments as measured by qRT-PCR of RNA isolated from fresh frozen liver tissue. Samples were analyzed in triplicate. **p < 0.01 and *p < 0.05 compared to saline control; ^##p < 0.01 and ^#p < 0.05 compared to IL1-β group. (D) Neutrophil levels in brain as measured by immunohistochemistry using coronal brain sections and Ly6b antibody. (E) Quantitation of (D); **p < 0.01 compared to saline control; ^##p < 0.01 compared to IL1-β group. […]

SMILES: COc1cc(O)c(C(=O)O)c(-c2cc(O)c(O)cc2C)c1 [altenusin]
- effect on neutrophil infiltration into brain parenchyma (nSMase2 [1]): suppress neutrophil infiltration

- IC50 (human nSMase2): 10 µM
SMILES: COc1ccc(S(=O)(=O)N(C(=O)C(C)C)c2ccc3oc(=O)sc3c2)cc1 [MLS000521532]

SMILES: O=c1[nH]c(=S)[nH]c(-c2ccccc2)c1Cc1c(O)ccc2ccccc12 [Cambinol]
- metabolic stability [3]: metabolically unstable
- in vivo pharmacokinetic profile [4]: poor in vivo pharmacokinetic profile

SMILES: COc1cc(OC)cc(-c2nc(-c3cccs3)c(-c3ccccc3)[nH]2)c1 [des-hydroxyl analog]
- effect on EV release from primary astrocytes (primary astrocytes; listed as des hydroxyl inactive analog of DPTIP): did not inhibit EV release
- effect on EV release from primary astrocytes (primary astrocytes; listed as inactive analog): no effect on EV release
- effect on GFAP levels without serum starvation (Rat primary astrocytes; no serum starvation): did not change GFAP levels
- effect on astrocyte activation (GFAP) in response to serum starvation (Rat primary astrocytes; with serum deprivation): failed to prevent astrocyte activation
- effect on IL-1β-induced EV release (GFAP-GFP mice): no difference
- effect on IL-1β-induced EV release (GFAP-GFP mice; listed as inactive analog): no statistically significant effect

- IC50 (human nSMase2): 10 µM
SMILES: COc1ccc(NC2CCCN(C(=O)CCc3ccccc3F)C2)cc1 (centres unmarked) [MLS001002546]
